From patent US11311533B2, “Opioid receptor antagonist conjugate and use thereof” (SHANGHAI HANMAI BIO-PHARMA CO., LTD., priority 2016, dated 2022)
Several values for one entry are separate records, joined by “and”; a condition that tells them apart may be missing. Equal values may be shown once. Where a name gives a salt, the structure may show the parent alone. Read-outs that look alike come from different tables or passages of the source.

What was measured:
mice [1] = assay: Anti-constipation study: antagonizing the antidiarrheal effect of loperamide hydrochloride (castor oil diarrhea); assay type: in vivo
Protocol: The anti-constipation study experiment was completed by using the test of antagonizing the antidiarrheal effect of loperamide hydrochloride. The specific experiment process was: the mice were divided into groups randomly, eight mice each group, wherein one group was administered with 0.5 mL of castor oil by gavage, one group was administered with 2 mg/kg loperamide hydrochloride and 0.5 mL of castor oil by gavage, and conjugate test groups were respectively administered with Na1021 (300 nmol/kg), Na1029 (300 nmol/kg), Na1033 (300 nmol/kg) and Na1045 (600 nmol/kg) by gavage first, and then with 2 mg/kg loperamide and 0.5 mL castor oil by gavage.
The mice were divided into groups randomly, eight mice each group, wherein one group was administered with 0.5 mL of castor oil by gavage, one group was administered with 2 mg/kg loperamide and 0.5 mL castor oil by gavage, other groups were respectively administered with different doses of conjugate Na1029 first, then with 2 mg/kg loperamide hydrochloride and 0.5 mL castor oil by gavage.

mice [2] = assay: Mouse hot plate analgesia experiment (antagonism of morphine analgesia, blood-brain barrier study); details: for Average Pain Threshold after Administration (s) Mean ± SD: 60 minutes after administration; for Passage through the blood-brain barrier (concluded from antagonism of the analgesic effect of morphine): mouse hot plate, conjugate subcutaneous after morphine by gavage; for Difference between the pain threshold before and after administration (significance): before vs 60 minutes after administration, Na1037 and Na1041: high-dose groups
Protocol: Six conjugates Na1021, Na1029, Na1045, Na1037, Na1041, and Na1049 were subjected to mouse hot plate analgesia experiments for four times, respectively. In each experiment, mice (JOINN Laboratories (Suzhou)) were randomly divided into four groups (eight per group): one blank control group, one morphine control group, and two other groups which were administered with morphine by gavage first, and then low dose and high dose of the conjugates were subcutaneously injected respectively. The mice were put on a hot plate (55±0.1) ° C. before administration, and the time was recorded immediately. The duration from the beginning on the hot plate to the first hind paw licking was recorded as the reaction time of heat-pain sensation (i.e., pain threshold, the unit is second (s)). The pain threshold was set as 100% analgesia if there was no hind paw licking in 60 seconds. It was recorded as 60 seconds when the time exceeded 60 seconds to prevent burn of foot. The mice were again put on a (55±0.1) ° C. hot plate 60 minutes after the administration of drug and the reaction time of heat-pain sensation was recorded. […] The value of the pain thresholds before and after administration was compared and the percentage of increase in pain threshold was calculated according to the following formula to determine the effect of drug on antagonizing morphine analgesia. Percentage of increase in pain threshold=[(average heat pain threshold after administration−average pain threshold before administration)/average pain threshold before administration]×100%

[3] = target: T1, OPRM1 (Mμ opioid receptor gene) receptor (Homo sapiens, UniProt P35372); assay: cell-based; details: for inhibition at 10 µM: OPRM1, read-out: Inhibition rate (%) of highest concentration (mean ± standard deviation) (N = 2)
T1 sequence (P35372 whole entry): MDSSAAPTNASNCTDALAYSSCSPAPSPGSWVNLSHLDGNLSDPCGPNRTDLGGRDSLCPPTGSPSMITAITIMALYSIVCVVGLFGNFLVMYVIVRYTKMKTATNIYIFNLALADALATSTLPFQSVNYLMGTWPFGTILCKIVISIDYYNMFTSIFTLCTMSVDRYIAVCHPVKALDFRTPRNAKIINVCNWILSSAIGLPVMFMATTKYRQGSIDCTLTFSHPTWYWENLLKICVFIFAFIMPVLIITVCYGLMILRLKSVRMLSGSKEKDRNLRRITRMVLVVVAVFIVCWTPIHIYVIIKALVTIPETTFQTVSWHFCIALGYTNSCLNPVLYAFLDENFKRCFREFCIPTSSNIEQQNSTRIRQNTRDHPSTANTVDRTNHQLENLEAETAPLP
Protocol: (§1) Cell suspension was inoculated into a 384-well microplate at a density of 15,000 cells per well, and cultured in a 37° C./5% CO2 incubator for at least 18 hours before experiment.
(§2) Before the test, the conjugates to be tested was diluted with HBSS buffer (containing 20 mM HEPES) and prepared as 5× solution with a concentration five times of the test solution. […] The concentration of the corresponding control DMSO is 0.1%.
(§3) The protocol for preparing agonist detection: cells were inoculated into 384-well microplates, 20 μl of cell suspension per well (containing 15,000 cells); the plate was placed in 37° C./5% CO2 incubator to continue the culture; cells were taken out after 18 hours, and dye was added, 20 μl per well; the plate was incubated in 37° C./5% CO2 incubator for 1 hour and equilibrated at room temperature for 15 minutes; and 10 μl of 5× test solution of agonist was added to each well for RFU value detection.
(§4) The protocol for preparing inhibitor detection: cells were inoculated into 384-well microplates, 20 μl of cell suspension per well (containing 15,000 cells); the plate was placed in 37° C./5% CO2 incubator to continue the culture; cells were taken out after 18 hours; for the inhibitor detection, 20 μl of dye was added to the plate, and then 10 μl of prepared conjugate solution was added; the plate was incubated in 37° C./5% CO2 for 1 hour and equilibrate at room temperature for 15 minutes; 12.5 μl of 5× EC80 positive agonist was added for RFU value detection.
(§5) The 384-well microplate containing the conjugate solution (5× test concentration), cell plate and pipette tip box were placed in FLIPR (Molecule Devices), and the agonist detection program was run. The overall detection time of the instrument was 120 seconds. 10 μl of agonist was automatically added to the plate at the 21st second. […] (Molecule Devices), and the inhibitor detection program was run. The overall detection time of the instrument was 120 seconds. 12.5 μl of positive agonist was automatically added to the plate at the 21st second.

[4] = target: T1, OPRM1 (Mμ opioid receptor gene) receptor
Protocol: as §1, §2, §3, §4, §5

[5] = Table 10: 300 nmol/kg by gavage + Loperamide Hydrochloride + Castor Oil
[6] = Table 11: 500 μg/kg + Loperamide Hydrochloride + Castor Oil
[7] = 4 μmol/kg subcutaneous + Morphine by gavage
[8] = 20 μmol/kg subcutaneous + Morphine by gavage

CN(C)C(=O)C(CCN1CCC(O)(c2ccc(Cl)cc2)CC1)(c1ccccc1)c1ccccc1 [Loperamide Hydrochloride, loperamide hydrochloride, reference compound]
Total Number of Diarrhea Times Six Hours after Administration (mice [1]; Table 10: 2 mg/kg loperamide hydrochloride + 0.5 mL castor oil by gavage, no conjugate): 10.88 ± 7.14 | Total Number of Diarrhea Times Six Hours after Administration (mice [1]; Table 11: 2 mg/kg loperamide + 0.5 mL castor oil by gavage, no conjugate): 5.75 ± 3.69

CN1CC[C@]23c4c5ccc(O)c4O[C@H]2[C@@H](O)C=C[C@H]3[C@H]1C5 [Morphine, morphine, reference compound]
Average Pain Threshold after Administration (s) Mean ± SD (mice [2]; morphine control group, cut-off 60 s): 53.25 ± 10.96 s and 52.00 ± 9.67 s and 38.5 ± 15.58 s and 39.00 ± 17.25 s | Average Pain Threshold before Administration (s) Mean ± SD (mice [2]; morphine control group, hot plate 55 °C): 19.25 ± 5.57 s and 20.38 ± 3.93 s and 20.88 ± 4.91 s and 15.12 ± 6.38 s

Oc1ccc2c3c1O[C@H]1[C@@H](OCCOCCOCCOCCO[C@H]4CC[C@@]5(O)[C@H]6Cc7ccc(O)c8c7[C@@]5(CCN6CC5CC5)[C@H]4O8)CC[C@@]4(O)[C@@H](C2)N(CC2CC2)CC[C@]314 [Nal021, PEG4-(6-α-naltrexol)2-ether]
Average Pain Threshold before Administration (s) Mean ± SD (mice [2]; 4.36 μmol/kg + Morphine group): 20.63 ± 7.07 s | Percentage of Increase in Pain Threshold (mice [2]; 4.36 μmol/kg + morphine): 172.66% | Average Pain Threshold after Administration (s) Mean ± SD (mice [2]; 4.36 μmol/kg subcutaneous + Morphine by gavage): 56.25 ± 10.61 s | Average Pain Threshold before Administration (s) Mean ± SD (mice [2]; 21.8 μmol/kg + Morphine group): 18.63 ± 4.60 s | Percentage of Increase in Pain Threshold (mice [2]; 21.8 μmol/kg + morphine): 220.72% | Average Pain Threshold after Administration (s) Mean ± SD (mice [2]; 21.8 μmol/kg subcutaneous + Morphine by gavage): 59.75 ± 0.71 s | Passage through the blood-brain barrier (concluded from antagonism of the analgesic effect of morphine) (mice [2]): cannot pass through the blood-brain barrier | IC50 [3]: 229 nM | inhibition at 10 µM [3]: 100.3 ± 0.56%

Oc1ccc2c3c1O[C@H]1[C@@H](OCCOCCOCCOCCOCCOCCO[C@H]4CC[C@@]5(O)[C@H]6Cc7ccc(O)c8c7[C@@]5(CCN6CC5CC5)[C@H]4O8)CC[C@@]4(O)[C@@H](C2)N(CC2CC2)CC[C@]314 [Nal025, PEG6-(6-α-naltrexol)2-ether]
IC50 [3]: 185 nM | inhibition at 10 µM [3]: 100.6 ± 0.48%

Oc1ccc2c3c1O[C@H]1[C@H](OCCOCCOCCOCCOCCOCCO[C@@H]4CC[C@@]5(O)[C@H]6Cc7ccc(O)c8c7[C@@]5(CCN6CC5CC5)[C@H]4O8)CC[C@@]4(O)[C@@H](C2)N(CC2CC2)CC[C@]314 [Nal026, PEG6-(6-β-naltrexol)2-ether]
IC50 [3]: 183 nM | inhibition at 10 µM [3]: 100.5 ± 0.26%

Oc1ccc2c3c1O[C@H]1[C@@H](OCCOCCOCCOCCOCCOCCOCCOCCO[C@H]4CC[C@@]5(O)[C@H]6Cc7ccc(O)c8c7[C@@]5(CCN6CC5CC5)[C@H]4O8)CC[C@@]4(O)[C@@H](C2)N(CC2CC2)CC[C@]314 [Nal029, PEG8-(6-α-naltrexol)2-ether]
Antagonism of the antidiarrheal effect of loperamide hydrochloride compared with the model control group (mice [1]; Example 9, dose-dependent): significantly antagonize | Total Number of Diarrhea Times Six Hours after Administration (mice [1]; [5]): 20.88 ± 5.82 | Total Number of Diarrhea Times Six Hours after Administration (mice [1]; Table 10: 300 nmol/kg by gavage + Loperamide Hydrochloride + Castor Oil, listed as Na1029): relatively high | Total Number of Diarrhea Times Six Hours after Administration (mice [1]; Table 11: 10 μg/kg + Loperamide Hydrochloride + Castor Oil): 5.25 ± 7.42 | Total Number of Diarrhea Times Six Hours after Administration (mice [1]; Table 11: 30 μg/kg + Loperamide Hydrochloride + Castor Oil): 6.50 ± 5.88 | Total Number of Diarrhea Times Six Hours after Administration (mice [1]; Table 11: 100 μg/kg + Loperamide Hydrochloride + Castor Oil): 12.13 ± 5.67 | Total Number of Diarrhea Times Six Hours after Administration (mice [1]; [6]): 18.25 ± 3.99 | EC50 for antagonizing the antidiarrheal effect of loperamide hydrochloride (mice [1]; dose-response in mice, Table 11 and FIG. 1): ~0.086 mg/kg | Average Pain Threshold before Administration (s) Mean ± SD (mice [2]; 3.66 μmol/kg + Morphine group): 20.00 ± 5.71 s | Percentage of Increase in Pain Threshold (mice [2]; 3.66 μmol/kg + morphine): 200.00% | Average Pain Threshold after Administration (s) Mean ± SD (mice [2]; 3.66 μmol/kg subcutaneous + Morphine by gavage): 60.00 ± 0 s | Average Pain Threshold before Administration (s) Mean ± SD (mice [2]; 18.28 μmol/kg + Morphine group): 22.13 ± 7.26 s | Percentage of Increase in Pain Threshold (mice [2]; 18.28 μmol/kg + morphine): 155.31% | Average Pain Threshold after Administration (s) Mean ± SD (mice [2]; 18.28 μmol/kg subcutaneous + Morphine by gavage): 56.5 ± 9.90 s | Passage through the blood-brain barrier (concluded from antagonism of the analgesic effect of morphine) (mice [2]): cannot pass through the blood-brain barrier | IC50 [3]: 161 nM | inhibition at 10 µM [3]: 98 ± 3.09%

Oc1ccc2c3c1O[C@H]1[C@@H](OCCOCCOCCOCCOCCOCCOCCOCCOCCOCCO[C@H]4CC[C@@]5(O)[C@H]6Cc7ccc(O)c8c7[C@@]5(CCN6CC5CC5)[C@H]4O8)CC[C@@]4(O)[C@@H](C2)N(CC2CC2)CC[C@]314 [Nal033, PEG10-(6-α-naltrexol)2-ether]
Total Number of Diarrhea Times Six Hours after Administration (mice [1]; [5]): 15.25 ± 4.13 | IC50 [3]: 197 nM | inhibition at 10 µM [3]: 99.1 ± 1%

COCCOCCOCCOCCOCCOCCO[C@H]1CC[C@@]2(O)[C@H]3Cc4ccc(O)c5c4[C@@]2(CCN3CC2CC2)[C@H]1O5 [Nal037, mPEG6-(6-α-naltrexol)-ether]
Average Pain Threshold before Administration (s) Mean ± SD (mice [2]; 4 μmol/kg + Morphine group): 19.38 ± 5.21 s | Percentage of Increase in Pain Threshold (mice [2]; 4 μmol/kg + morphine): 62.54% | Average Pain Threshold after Administration (s) Mean ± SD (mice [2]; [7]): 31.50 ± 11.83 s | Average Pain Threshold before Administration (s) Mean ± SD (mice [2]; 20 μmol/kg + Morphine group): 20.5 ± 3.93 s | Percentage of Increase in Pain Threshold (mice [2]; 20 μmol/kg + morphine): 1.85% | Average Pain Threshold after Administration (s) Mean ± SD (mice [2]; [8]): 20.88 ± 5.87 s | Difference between the pain threshold before and after administration (significance) (mice [2]): not significant | Passage through the blood-brain barrier (concluded from antagonism of the analgesic effect of morphine) (mice [2]): can pass through the blood-brain barrier | IC50 [3]: 225 nM | inhibition at 10 µM [3]: 100.6 ± 0.34%

COCCOCCOCCOCCOCCOCCOCCOCCO[C@H]1CC[C@@]2(O)[C@H]3Cc4ccc(O)c5c4[C@@]2(CCN3CC2CC2)[C@H]1O5 [Nal041, mPEG8-(6-α-naltrexol)-ether]
Average Pain Threshold before Administration (s) Mean ± SD (mice [2]; 4 μmol/kg + Morphine group): 14.25 ± 1.75 s | Percentage of Increase in Pain Threshold (mice [2]; 4 μmol/kg + morphine): 170.18% | Average Pain Threshold after Administration (s) Mean ± SD (mice [2]; [7]): 38.5 ± 14.74 s | Average Pain Threshold before Administration (s) Mean ± SD (mice [2]; 20 μmol/kg + Morphine group): 16.88 ± 6.79 s | Percentage of Increase in Pain Threshold (mice [2]; 20 μmol/kg + morphine): 30.33% | Average Pain Threshold after Administration (s) Mean ± SD (mice [2]; [8]): 22.00 ± 5.12 s | Difference between the pain threshold before and after administration (significance) (mice [2]): not significant | Passage through the blood-brain barrier (concluded from antagonism of the analgesic effect of morphine) (mice [2]): can pass through the blood-brain barrier | IC50 [3]: 210 nM | inhibition at 10 µM [3]: 95.8 ± 1.86%

C=CCN1CCC23c4c5ccc(O)c4OC2C(OCCOCCOCCOCCOCCOCCOC)CCC3(O)C1C5 (stereo not drawn) [Nal046, mPEG6-(6-β-naloxol)-ether]
IC50 ([4]; CHO-K1/Gα15/OPRM1 cells, inhibitor detection against EC80 positive agonist, RFU): 3840 nM | Inhibition rate (%) of highest concentration (mean ± standard deviation) (N = 2) ([4]; highest concentration 10000 nM): 79.55 ± 5.73%

C=CCN1CC[C@]23c4c5ccc(O)c4O[C@H]2[C@@H](OCCOCCOCCOCCOCCOCCOCCOCCOC)CC[C@@]3(O)[C@H]1C5 [Nal049, mPEG8-(6-α-naloxol)-ether]
Average Pain Threshold before Administration (s) Mean ± SD (mice [2]; 4 μmol/kg + Morphine group): 14.00 ± 7.09 s | Percentage of Increase in Pain Threshold (mice [2]; 4 μmol/kg + morphine): 125.93% | Average Pain Threshold after Administration (s) Mean ± SD (mice [2]; [7]): 31.63 ± 10.04 s | Average Pain Threshold before Administration (s) Mean ± SD (mice [2]; 20 μmol/kg + Morphine group): 13.5 ± 5.07 s | Percentage of Increase in Pain Threshold (mice [2]; 20 μmol/kg + morphine): 91.70% | Average Pain Threshold after Administration (s) Mean ± SD (mice [2]; [8]): 25.88 ± 7.64 s | Passage through the blood-brain barrier (concluded from antagonism of the analgesic effect of morphine) (mice [2]): cannot pass through the blood-brain barrier | IC50 [3]: 1050 nM | inhibition at 10 µM [3]: 94.3 ± 5.39%

Oc1ccc2c3c1O[C@H]1[C@@H](OCCOCCOCCO[C@H]4CC[C@@]5(O)[C@H]6Cc7ccc(O)c8c7[C@@]5(CCN6CC5CC5)[C@H]4O8)CC[C@@]4(O)[C@@H](C2)N(CC2CC2)CC[C@]314 [Nal053, PEG3-(6-α-naltrexol)2-ether]
IC50 [3]: 250 nM | inhibition at 10 µM [3]: 101.8 ± 0.97%

O=C1CC[C@@]2(O)[C@H]3Cc4ccc(O)c5c4[C@@]2(CCN3CC2CC2)[C@H]1O5 [Naltrexone, naltrexone, reference compound]
Total Number of Diarrhea Times Six Hours after Administration (mice [1]; [6]): 14.00 ± 5.76
